Here are results for 7 compounds from US11021448B2, “1,3-dihydro-1,4-benzodiazepine-2-thiones for the treatment of CNS related diseases” (priority 2016, dated 2021).

The structures appear in SMILES notation. Where two headings read alike, the source gives them in different places. Bounds are passed on as bounds.

Data set [1] has as its target T1, hM1 (Homo sapiens, UniProt P11229).
T1 construct: expressed in transfected cells; host or cells: CHO
T1 sequence (P11229 1-460): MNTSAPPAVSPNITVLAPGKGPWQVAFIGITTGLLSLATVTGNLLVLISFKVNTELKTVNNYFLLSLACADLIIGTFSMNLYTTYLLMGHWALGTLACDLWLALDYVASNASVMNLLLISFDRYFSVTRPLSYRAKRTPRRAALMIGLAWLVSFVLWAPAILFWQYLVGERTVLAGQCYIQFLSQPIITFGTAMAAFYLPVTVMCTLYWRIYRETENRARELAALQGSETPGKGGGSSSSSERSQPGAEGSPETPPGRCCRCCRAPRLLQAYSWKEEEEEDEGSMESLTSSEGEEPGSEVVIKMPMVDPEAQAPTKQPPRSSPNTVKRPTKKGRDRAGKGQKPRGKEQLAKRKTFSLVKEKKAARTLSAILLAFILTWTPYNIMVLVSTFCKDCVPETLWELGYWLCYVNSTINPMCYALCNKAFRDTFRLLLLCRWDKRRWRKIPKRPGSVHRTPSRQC
Briefly: FLIPR intracellular calcium assay for modulator activity at the muscarinic M1 receptor in CHO human M1 cells. Type of data set: cell-based. The protocol:
The assay study the effect of several concentrations of test compounds on basal or acetylcholine-stimulated Ca^2+ levels using FLIPR.
The cell plate and the diluted compounds (1% DMSO final concentration) are placed on the platform of the FLIPR and the door closed. A signal test to check background fluorescence and basal fluorescence signal is performed. Laser intensity is adjusted if necessary. Two minutes preincubation with the diluted test compounds is provide to determine any agonist activity on the M1 receptor by comparison to 30 nM Acetylcholine control. In order to determine any modulator activity the diluted compounds were added to cells and after two minutes preincubation, the EC20 of acetylcholine is added followed by another two minutes preincubation before the measurement of intracellular Ca^2+ with a FLIPR (Molecular Devices).
In general terms: A change in cytosolic calcium serves as a functional read-out for many receptors and channels.

In data set [2] the target is T2, GABA-A alpha5 (α5β3γ2) (Homo sapiens, UniProt P18507+P31644).
T2 construct: expressed in transfected cells; host or cells: HEK293 (transient transfection; membranes)
Put plainly: GABA A radioligand binding assay, competition for [3H]flumazenil. Conditions: [3H]flumazenil 1 nM, HEK293 membranes. The protocol: The ability of compounds present invention to bind to GABA A receptor subtypes was determined by competition for [^3H]flumazenil (85 Ci/mmol; Roche) binding to HEK293 cells expressing human (transiently transfected) receptors of composition α1β2γ2, and α5β3γ2.
Membrane preparation Cell pellets were suspended in Krebs-tris buffer (5 mM KCl, 1.25 mM CaCl2), 1.25 mM MgCl2, 120 mM NaCl, 15 mM Tris; pH 7.5; binding assay buffer), homogenized by polytron for ca. 20 sec on ice and centrifuged for 60 min at 4° C. (50000 g; Sorvall, rotor: SM24=20000 rpm). The cell pellets were resuspended in Krebs-tris buffer and homogenized by polytron for ca. 15 sec on ice. Protein was measured (Bradford method, Bio-Rad) and aliquots of 1 mL were prepared and stored at −80° C.
Radioligand binding assays were carried out in a volume of 200 uL (96-well plates) which contained 100 μL of cell membranes, [3H]flumazenil at a concentration of 1 nM for a1, a2, a3 subunits and 1 nM for a5 subunits and the test compound in the range of 3.16 μM to 0.1 μM. Nonspecific binding was defined by 10^−5 M diazepam and typically represented less than 5% of the total binding. […] After drying, filter-retained radioactivity was detected by liquid scintillation counting.
Ki values were calculated using Excel-Fit (Microsoft) and are the means of two determinations.

Data set [3] has as its system GABA A. Briefly: Oocyte EP. The class given is cell-based. Conditions: at 1 μM.

For the compound `CC(C)[C@@H]1N=C(c2ccccc2F)c2cc(Cl)ccc2NC1=S` [Example 5, (3S)-7-chloro-5-(2-fluorophenyl)-3-propan-2-yl-1,3-dihydro-1,4-benzodiazepine-2-thione], the IC50 – broadly, the concentration that inhibits the measured activity by half – in data set [1] was 80 nM. The Ki – broadly, the equilibrium dissociation constant of an inhibitor or competing ligand from its target – was above 36 µM in data set [2] (GABA-A alpha 5 (second value, Ki implied), second value) and above 24 µM in data set [2] (GABA-A alpha5: Ki). The “Oocyte EP effect” value in data set [3] is “no effect”. Regarding `CC(=O)OC1C=C(c2ccccc2F)c2cc(Cl)ccc2NC1=S` (centres unmarked) [Example 14, [7-chloro-5-(2-fluorophenyl)-2-thioxo-1,3-dihydro-1-benzazepin-3-yl]acetate], the melting point – broadly, the temperature, or range, at which the solid turns liquid – was in the range of 214 to 215 °C. Moreover, the half-maximal inhibitory concentration (IC50) in data set [1] (CHO human M1, with EC20 of acetylcholine, FLIPR, read-out: IC50 value hM1 (converted)) is 649 nM.

Turning to `COc1ccc2c(c1)C(c1ccccc1)=N[C@@H](C(C)C)C(=S)N2` [Example 40, (3S)-3-isopropyl-7-methoxy-5-phenyl-1,3-dihydro-1,4-benzodiazepine-2-thione], the IC50 in data set [1] amounted to 559 nM. Turning to `CC1N=C(c2ccccc2)c2ccccc2NC1=S` (centres unmarked) [Example 41, 3-methyl-5-phenyl-1,3-dihydro-1,4-benzodiazepine-2-thione], in data set [1], the 50% inhibitory concentration (IC50) stood at 552 nM. Still for that read-out and setting: under `CCC1CN(c2ccccc2)c2cc(Cl)ccc2NC1=S` (centres unmarked) [Example 42] stands 50 nM. For the compound `S=C1Nc2ccc(Cl)cc2C(c2ccccc2Cl)=NC1Cc1ccccc1` (centres unmarked) [Example X1, 3-Benzyl-7-chloro-5-(2-chloro-phenyl)-1,3-dihydro-benzo[1,4]diazepine-2-thione], in data set [1], the “activity at M1 receptor” value is recorded as “no activity”.

Regarding `S=C1Nc2ccc(Cl)cc2C(c2ccccc2Cl)=NC1CC1CC1` (centres unmarked) [Example X2, 7-chloro-5-(2-chlorophenyl)-3-(cyclopropylmethyl)-1H-benzo[e][1,4]diazepine-2(3H)-thione], the “activity at M1 receptor” value in data set [1] is “no activity”.
